# Experiments:
# Test in all cases: relative viability (nuclei count vs DMSO), 5 days (fraction); higher = more cells survive
# NCI-H1734 = system: NCI-H1734
# Outline: (§1)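 Lung cancer cell lines were pin-tool dosed in 1536-well plates on the day after seeding, with either a lone drug or a fixed anchor-drug dose plus five library-drug doses (not always all listed) in √10 steps. Nuclei were counted on 4× images after 5 days. Relative viability is the ratio of treated-well to vehicle-well nuclei counts, with each value a median of duplicate plates.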
# NCI-H1993 = system: NCI-H1993
# Outline: as §1
# SK-LU-1 = system: SK-LU-1
# Outline: as §1
# NCI-H2342 = system: NCI-H2342
# Outline: as §1
# NCI-H1355 = system: NCI-H1355
# Outline: as §1
# NCI-H1915 = system: NCI-H1915
# Outline: as §1
# SW 1573 = system: SW 1573
# Outline: as §1
# LCLC-103H = system: LCLC-103H
# Outline: as §1
# NCI-H1975 = system: NCI-H1975
# Outline: as §1
# NCI-H2347 = system: NCI-H2347
# Outline: as §1
# HCC-827 = system: HCC-827
# Outline: as §1
# NCI-H23 = system: NCI-H23
# Outline: as §1
# NCI-H650 = system: NCI-H650
# Outline: as §1
# SK-MES-1 = system: SK-MES-1
# Outline: as §1
# UMC-11 = system: UMC-11
# Outline: as §1
# NCI-H1755 = system: NCI-H1755
# Outline: as §1
# HCC-366 = system: HCC-366
# Outline: as §1
# RERF-LC-KJ = system: RERF-LC-KJ
# Outline: as §1
# NCI-H2170 = system: NCI-H2170
# Outline: as §1
# NCI-H1792 = system: NCI-H1792
# Outline: as §1
# A-427 = system: A-427
# Outline: as §1
# LC-2-ad = system: LC-2-ad
# Outline: as §1
structure (smiles),measurement,setting,value
CN1CCN(CCOc2cc(OC3CCOCC3)c3c(Nc4c(Cl)ccc5c4OCO5)ncnc3c2)CC1 [Saracatinib] + Nc1ncn([C@H]2C[C@H](O)[C@@H](CO)O2)c(=O)n1 [Decitabine] (partner 2 µM),relative viability,NCI-H1734; first compound 0.02 µM,0.524
same,relative viability,NCI-H1734; first compound 0.6325 µM,0.491
same,relative viability,NCI-H1734; first compound 2 µM,0.475
same,relative viability,NCI-H1993; first compound 0.02 µM,0.63
same,relative viability,NCI-H1993; first compound 0.2 µM,1.43
same,relative viability,NCI-H1993; first compound 0.6325 µM,0.521
same,relative viability,NCI-H1993; first compound 2 µM,0.556
same,relative viability,SK-LU-1; first compound 0.02 µM,0.546
same,relative viability,SK-LU-1; first compound 0.2 µM,0.526
same,relative viability,SK-LU-1; first compound 0.6325 µM,0.594
same,relative viability,SK-LU-1; first compound 2 µM,0.405
same,relative viability,NCI-H2342; first compound 0.02 µM,0.791
same,relative viability,NCI-H2342; first compound 0.2 µM,0.677
same,relative viability,NCI-H2342; first compound 0.6325 µM,0.673
same,relative viability,NCI-H2342; first compound 2 µM,0.656
same,relative viability,NCI-H1355; first compound 0.02 µM,0.345
same,relative viability,NCI-H1355; first compound 0.2 µM,0.35
same,relative viability,NCI-H1355; first compound 0.6325 µM,0.358
same,relative viability,NCI-H1355; first compound 2 µM,0.354
same,relative viability,NCI-H1915; first compound 0.02 µM,0.245
same,relative viability,NCI-H1915; first compound 0.2 µM,0.264
same,relative viability,NCI-H1915; first compound 0.6325 µM,0.255
same,relative viability,NCI-H1915; first compound 2 µM,0.237
same,relative viability,SW 1573; first compound 0.02 µM,0.512
same,relative viability,SW 1573; first compound 0.2 µM,0.481
same,relative viability,SW 1573; first compound 0.6325 µM,0.458
same,relative viability,SW 1573; first compound 2 µM,0.434
same,relative viability,LCLC-103H; first compound 0.02 µM,0.774
same,relative viability,LCLC-103H; first compound 0.2 µM,0.653
same,relative viability,LCLC-103H; first compound 0.6325 µM,0.72
same,relative viability,LCLC-103H; first compound 2 µM,0.716
same,relative viability,NCI-H1975; first compound 0.02 µM,0.45
same,relative viability,NCI-H1975; first compound 0.2 µM,0.37
same,relative viability,NCI-H1975; first compound 0.6325 µM,0.386
same,relative viability,NCI-H1975; first compound 2 µM,0.338
same,relative viability,NCI-H2347; first compound 0.02 µM,0.629
same,relative viability,NCI-H2347; first compound 0.2 µM,0.538
same,relative viability,NCI-H2347; first compound 0.6325 µM,0.595
same,relative viability,NCI-H2347; first compound 2 µM,0.578
same,relative viability,HCC-827; first compound 0.02 µM,0.359
same,relative viability,HCC-827; first compound 0.2 µM,0.225
same,relative viability,HCC-827; first compound 0.6325 µM,0.19
same,relative viability,HCC-827; first compound 2 µM,0.151
same,relative viability,NCI-H23; first compound 0.02 µM,0.208
same,relative viability,NCI-H23; first compound 0.6325 µM,0.29
same,relative viability,NCI-H23; first compound 2 µM,0.212
same,relative viability,NCI-H650; first compound 0.02 µM,0.319
same,relative viability,NCI-H650; first compound 0.2 µM,0.3
same,relative viability,NCI-H650; first compound 0.6325 µM,0.295
same,relative viability,NCI-H650; first compound 2 µM,0.288
same,relative viability,SK-MES-1; first compound 0.02 µM,0.353
same,relative viability,SK-MES-1; first compound 0.2 µM,0.352
same,relative viability,SK-MES-1; first compound 0.6325 µM,0.36
same,relative viability,SK-MES-1; first compound 2 µM,0.203
same,relative viability,UMC-11; first compound 0.02 µM,0.686
same,relative viability,UMC-11; first compound 0.2 µM,0.667
same,relative viability,UMC-11; first compound 0.6325 µM,0.453
same,relative viability,UMC-11; first compound 2 µM,0.533
same,relative viability,NCI-H1755; first compound 0.02 µM,0.711
same,relative viability,NCI-H1755; first compound 0.2 µM,0.604
same,relative viability,NCI-H1755; first compound 0.6325 µM,0.72
same,relative viability,NCI-H1755; first compound 2 µM,0.691
same,relative viability,HCC-366; first compound 0.02 µM,0.321
same,relative viability,HCC-366; first compound 0.2 µM,0.148
same,relative viability,HCC-366; first compound 0.6325 µM,0.293
same,relative viability,HCC-366; first compound 2 µM,0.194
same,relative viability,RERF-LC-KJ; first compound 0.02 µM,0.688
same,relative viability,RERF-LC-KJ; first compound 0.2 µM,0.657
same,relative viability,RERF-LC-KJ; first compound 0.6325 µM,0.734
same,relative viability,RERF-LC-KJ; first compound 2 µM,0.722
same,relative viability,NCI-H2170; first compound 0.02 µM,0.453
same,relative viability,NCI-H2170; first compound 0.2 µM,0.412
same,relative viability,NCI-H2170; first compound 0.6325 µM,0.452
same,relative viability,NCI-H2170; first compound 2 µM,0.415
same,relative viability,NCI-H1792; first compound 0.02 µM,0.597
same,relative viability,NCI-H1792; first compound 0.2 µM,0.464
same,relative viability,NCI-H1792; first compound 0.6325 µM,0.687
same,relative viability,NCI-H1792; first compound 2 µM,0.522
same,relative viability,A-427; first compound 0.02 µM,0.533
same,relative viability,A-427; first compound 0.2 µM,0.511
same,relative viability,A-427; first compound 0.6325 µM,0.593
same,relative viability,A-427; first compound 2 µM,0.526
same,relative viability,LC-2-ad; first compound 0.02 µM,0.79
same,relative viability,LC-2-ad; first compound 0.2 µM,0.751
same,relative viability,LC-2-ad; first compound 0.6325 µM,0.779
same,relative viability,LC-2-ad; first compound 2 µM,0.789

# Source: the supplement of paper PMC10307832
